We go through 14 compounds from US20020183307A1, “Novel 1,4-benzothiazephine and 1,5-benzothiazepine compounds as inhibitors of apical sodium co-dependent bile acid transport and taurocholate uptake” (priority 2000, published 2002).

Bounds are passed on as bounds.

One assay deals with T1, human IBAT (Homo sapiens, UniProt Q12908).
T1 construct: expressed in transfected cells; host or cells: Baby hamster kidney (BHK) cells, H14 clone
T1 sequence (Q12908 1-348): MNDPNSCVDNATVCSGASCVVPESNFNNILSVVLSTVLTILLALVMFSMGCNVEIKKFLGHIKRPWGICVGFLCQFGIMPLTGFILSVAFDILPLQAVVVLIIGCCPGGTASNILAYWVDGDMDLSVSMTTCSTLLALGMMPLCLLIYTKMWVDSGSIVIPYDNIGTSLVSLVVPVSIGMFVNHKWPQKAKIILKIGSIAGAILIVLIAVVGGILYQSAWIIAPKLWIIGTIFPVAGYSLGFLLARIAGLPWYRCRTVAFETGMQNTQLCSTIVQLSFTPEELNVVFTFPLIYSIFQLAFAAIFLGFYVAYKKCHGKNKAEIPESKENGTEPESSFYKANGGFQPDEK
In words: In vitro assay of compounds that inhibit IBAT-mediated uptake of [14C]-taurocholate (TC) in H14 cells. The format is cell-based. As to conditions: Table 7, 1,5-benzothiazepines; 50% inhibitory concentrations by the biological evaluation procedures. As to the method: In Vitro Assay of Compounds That Inhibit IBAT-mediated Uptake of [^14C]-Taurocholate (TC) in H14 Cells
Baby hamster kidney cells (BHK) transfected with the cDNA of human IBAT (Hl4 cells) are seeded in 96 well Top-Count tissue culture plates at 60,000 cells/well for assays run within 24 hours of seeding, 30,000 cells/well for assays run within 48 hours, and 10,000 cells/well for assays run within 72 hours.
On the day of assay, the cell monolayer is gently washed once with […] (Dulbecco's Modified Eagle's medium with 4.5 g/L glucose plus 0.2% (w/v) fatty acid free bovine serum albumin ((FAF)BSA). To each well […] of a two-fold concentrate of test compound in assay buffer is added along with […] of […] [^14C]-taurocholate in assay buffer (final concentration of […] [^14C]-taurocholate).
The cell culture plates are incubated 2 hours at 37° C. prior to gently washing each well twice with […] 4° C. Dulbecco's phosphate-buffered saline (PBS) containing 0.2% (w/v) (FAF)BSA. The wells are then gently washed once with […] 4° C. PBS without (FAF)BSA. To each […] of liquid, scintillation counting fluid is added.
The plates are heat sealed and shaken for 30 minutes at room temperature prior to measuring the amount of radioactivity in each well on a Packard Top-Count instrument.
For orientation: IC50 means the point on the concentration scale where inhibition reaches its midpoint. High values mean a need for much substance, low ones inhibition by little substance. Consider `CCCCC1(CCCC)CN(c2ccc(OC)cc2)c2cc(F)ccc2S(=O)(=O)C1` [SC-86288], for which the IC50 was determined as 320 nM.

Compound `CCCCC1(CCCC)CN(c2ccc(OCc3ccc(C[N+]45CCN(CC4)CC5)cc3)cc2)c2cc(N(C)C)ccc2S(=O)(=O)C1` [PHA00384640E] returned an IC50 of 31 nM. With `CCCCC1(CCCC)CN(c2ccc(OCC[N+](CC)(CC)CC)cc2)c2cc(N(C)C)ccc2S(=O)(=O)C1` [PHA00400884E], the IC50 is more than 1000 nM. In turn, `CCCCC1(CCCC)CN(c2ccc(OC)cc2)c2cc(N(C)C)ccc2S(=O)(=O)C1` [SC-86287] registered an IC50 of 289 nM. As for `CCCCC1(CCCC)CN(c2ccc(OCCN(CC)CC)cc2)c2cc(N(C)C)ccc2S(=O)(=O)C1` [PHA00400670], the IC50 was 26400 nM. As to `CCCCC1(CCCC)CN(c2ccc(OCCOCCOCC[N+](CC)(CC)CC)cc2)c2cc(N(C)C)ccc2S(=O)(=O)C1` [PHA00400885E], inhibition was half-maximal at 300 nM (IC50).

Staying with this assay, now noted: Table 8, 1,4 and 1,5 benzothiazipines; additional IC50 values.
Compound `CCCC[C@]1(CC)CS(=O)(=O)c2ccccc2[C@@H](c2ccccc2)N1` [Compound 1] had an IC50 of 600 nM. Still for that read-out and setting: the result for `CCCCC1(CCCC)CS(=O)(=O)c2ccc(N(C)C)cc2[C@@H](c2ccc(OCCOCCOCC[N+](CC)(CC)CC)cc2)N1` (racemic) [Compound 4, N-[2-[2-[2-[4-[3,3-Dibutyl-7-(dimethylamino)-2,3,4,5-tetrahydro-1,1-dioxido-1 4-benzothiazepin-5-yl]phenoxy]ethoxy]ethoxy]ethoxy]-N,N,N-triethylaminium Iodide] reads 74 nM.

`CCCCC1(CCCC)CN(c2ccc(OCCOCCOCC[N+](CC)(CC)CC)cc2)c2cc(N(C)C)ccc2S(=O)(=O)C1` [Compound 8, N-[2-[2-[2-[4-[3,3-Dibutyl-7-(dimethylamino)-2,3,4,5-tetrahydro-1,1-dioxido-1,5-benzothiazepin-5-yl]phenoxy]ethoxy]ethoxy]ethoxy]-NNN-triethylaminium Iodide] showed an IC50 of 300 nM. On the same count and under the same terms, for `CCCCC1(CCCC)CN(c2ccc(OC)cc2)c2cc(N(C)C)ccc2S(=O)(=O)C1` [Compound 6, 3,3-Dibutyl-2,3,4,5-tetrahydro-7-dimethylamino-5-(4′-methoxyphenyl)-1,5-benzothiazepine1,1-dioxide] the value was 289 nM; for `CCCCC1(CCCC)CN(c2ccc(OCc3ccc(C[N+]45CCN(CC4)CC5)cc3)cc2)c2cc(N(C)C)ccc2S(=O)(=O)C1` [Compound 9, 1-[[4-[[4-[3,3-Dibutyl-7-(dimethylamino)-2,3,4,5-tetrahydro-1,1-dioxido-1,5-benzothiazepin-5-yl]phenoxy]methyl]phenyl]methyl]-4-aza-1-azoniabicyclo[2.2.2]octane Chloride], 30 nM. The compound `CCCCC1(CCCC)CN(c2ccc(OCC[N+](CC)(CC)CC)cc2)c2cc(N(C)C)ccc2S(=O)(=O)C1` [Compound 7] displayed an IC50 of 15100 nM. For `CCCCC1(CCCC)CS(=O)(=O)c2ccc(N(C)C)cc2[C@@H](c2ccc(OCc3ccc(C[N+]45CCN(CC4)CC5)cc3)cc2)N1` (racemic) [Compound 5], inhibition was half-maximal at 22 nM (IC50).

`CCCCC1(CCCC)CS(=O)(=O)c2ccc(N(C)C)cc2[C@@H](c2ccc(OCC[N+](CC)(CC)CC)cc2)N1` (racemic) [Compound 3, N-[2-[4-[3,3-Dibutyl-7-(dimethylamino)-2,3,4,5-etrahydro-1,1-dioxido-1,4-benzothiazepin-5-yl]phenoxy]ethyl]-N,N,N-triethylaminium Iodide] registered an IC50 of 2090 nM.
